Measurements taken from patent publication US20210228523A1, “MODULATORS OF SESTRIN-GATOR2 INTERACTION AND USES THEREOF” (Navitor Pharmaceuticals, Inc., priority 2017, published 2021).

Tested on: Male Sprague Dawley rats
Experiment: Forced swimming test (FST)
Format: in vivo, rat
Conditions: for FST time spent immobile / decrease in FST time spent immobile vs Veh / decrease in FST time spent immobile vs Sal: Example G; for decrease in FST time spent immobile vs Veh / decrease in FST time spent immobile vs Sal: p<0.05
Experimental: Study Design. Twenty (20) male rats weighing between 175 and 200 g were randomized into 3 study groups (n=6-7/group), following a 5-day acclimation period. All rats were surgically implanted with bilateral IT cannulas in the PFC 2 weeks prior to dosing. […] Thirty minutes following the intrathecal infusions, either NV-5138 vehicle (Veh-NV, 0.5% methylcellulose/0.1% Tween-80) or NV-5138 (160 mg/kg) was administered by oral gavage. Each treatment group was assessed at the designated time following oral dosing in FST 24 hrs (day 1) LMA 48 hrs (day 2) and the NSFT 72 hrs (day 3 following a 20 hr period of fasting). LMA was measured to rule out overall changes in generally locomotor activity. The study design is presented in Table 11 with timeline of surgical procedures, test article administration and behavioral tests is provided in FIG. 20
Preparation of Test Articles. Rapamycin (Cell Signaling; #9904) was prepared in a solution of 10% DMSO (Veh-R) to a final concentration of 10 μM. R or Veh-R was administered bilaterally (0.005 nmol/0.5 μL per side) into the medial PFC via IT infusion 30 min prior to treatment with NV-5138 or Veh-NV by oral gavage. NV-5138 (lot #07) was prepared by dissolving in Veh (0.5% methylcellulose/0.1% Tween-80) at a concentration of 50 mg/mL. The dosing volume based on the weight of the animal (3.2 mL/kg) was administered by oral gavage to study animals in Groups 2 and 3.
Surgical Procedure and Administration of Rapamycin. Rats were steriotactically implanted with a guide cannula (22GA) into the medial PFC (coordinates from bregma: +3.2 AP, ±1.0 ML, -3.5 DV from dura). Surgical procedures were carried out under the anesthesia of Nembutal (i.p. 55 mg/kg). Postoperative care consisted in peri-surgical administration of carprofen (5 mg/kg) and topical triple antibiotic. After a 2-week recovery period, R (0.01 nmol in 1 μL for PFC infusion) or Veh-R was delivered at the rate of 0.25 μL/min with an injection cannula (26GA) protruding 0.5 mm beyond the guide cannula 30 min before oral administration of NV-5138 or Veh-NV.
Study Design. Forty-eight (48) male rats weighing between 175 and 200 g were randomized into 6 study groups (n=8/group), following a 5-day acclimation period. A single dose of all test articles was administered on day 0 and the behavioral tests were performed 3, 7 and 10 days later. Groups 1 and 2 were dosed on day 0 with NV-5138 (160 mg/kg by oral gavage) and Ket (10 mg/kg by i.p. injection), respectively and subjected to a FST on day 3. The rats in Group 3 and 4 received a single dose of the NV-5138 vehicle (Veh) or NV-5138 (160 mg/kg), respectively, by oral gavage on day 0. The rats in Group 5 and 6 received a single dose of the Ket vehicle (Sal) or Ket (10 mg/kg), respectively, by i.p. injection on day 0. The rats in groups 3-6 were subjected to a FST on day 7 and a NSFT on day 10. All rats in groups 3-6 were fasted the night before for 20 hours the NSFT.
Study Design. Twenty-four (24) male Sprague Dawley rats weighing between 175 and 200 g were randomized into 4 study groups (n=6/group), following a 5-day acclimation period. On study day minus 1 rats were subjected to a pre-swim. Beginning on study day 0, rats in Groups 2 received a dose of Ket (10 mg/kg) on alternate days (day 0, 2, 4, and 6) each by i.p. injection. The rats in Groups 1 received a daily dose of Veh by oral gavage for 7 days (days 0 to 6). The rats in Groups 3 and 4 received a daily dose of NV-5138 (40 or 80 mg/kg) for 7 days (days 0 to 6) each by oral gavage. All rats were subjected to the FST on day 7, 24 hrs after last dosing. On day 8, 48 hrs after last dosing, the LMA of all rats was measured in an open field. Rats were then fasted for 20 hrs and subjected to the NSFT on day 9 (72 hrs post-last dose).
Preparation of Test Articles. Ket (Sigma, cat #K1884) was dissolved in Sal at a concentration of 10 mg/mL. Injection volumes (i.p) of 1 mL/kg of Ket were administered to Group 2. […]

[1] = NV-5138 160 mg/kg oral single dose, 3 days after dose
[2] = NV-5138 160 mg/kg oral single dose, 7 days after dose
[3] = Ket 10 mg/kg i.p. single dose, 3 days after dose
[4] = Ket 10 mg/kg i.p. single dose, 7 days after dose

CC(C)(C[C@H](N)C(=O)O)C(F)F [NV-5138]
FST immobility time (Example F, Veh-R IT infusion then NV-5138 160 mg/kg oral, 24 hrs after oral dosing): 144 ± 15 s | decrease in FST immobility time vs Veh-R/Veh-NV (Example F, Veh-R IT infusion then NV-5138 160 mg/kg oral, 24 hrs, p<0.0001): 46% | FST immobility time, R/NV-5138 vs Veh-R/Veh-NV (Example F, rapamycin (R, 0.01 nmol) IT infusion into PFC 30 min before NV-5138 160 mg/kg oral, 24 hrs): lack of significant effect on immobility time | FST time spent immobile [1]: 87.9 ± 9.0 s | decrease in FST time spent immobile vs Veh [1]: 39% | FST time spent immobile [2]: 96.0 ± 11.3 s | decrease in FST time spent immobile vs Veh [2]: 34% | FST (Example I, NV-5138 80 mg/kg oral daily for 7 days, day 7, 24 hrs after last dosing): Significant effects

CNC1(c2ccccc2Cl)CCCCC1=O (stereo not drawn) [Ket, ketamine, reference compound]
FST time spent immobile [3]: 95.5 ± 7.8 s | decrease in FST time spent immobile vs Sal [3]: 31% | FST time spent immobile [4]: 95.0 ± 11.1 s | decrease in FST time spent immobile vs Sal [4]: 31%
